Test results published in the supplement of paper PMC10307832.

What was measured:
Assay in all cases: relative viability (nuclei count vs DMSO), 5 days (fraction); higher = more cells survive
[1] = compound: COc1cc2nccc(Oc3ccc(NC(=O)C4(C(=O)Nc5ccc(F)cc5)CC4)cc3)c2cc1OC [Cabozantinib] + CC(C)C[C@H](NC(=O)[C@H](Cc1ccccc1)NC(=O)c1cnccn1)B(O)O [Bortezomib] (partner 0.002 µM)
In short: (§1)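 Relative viability equals treated-well nuclei counts divided by vehicle-well nuclei counts. Counts came from 4× images of lung cancer cell lines grown in 1536-well plates for 5 days after pin-tool dosing on the day after seeding. Dosing used one drug alone or a fixed anchor-drug dose plus five library-drug doses (not always all listed) in √10 steps, and values are medians of duplicate plates.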

[2] = compound: C1=CC(=CC=C1NC(=S)NNC2=C(C=C(C=C2[N+](=O)[O-])C(F)(F)F)[N+](=O)[O-])F [Kobe2602] + NC(=O)Nc1cc(-c2cccc(F)c2)sc1C(=O)N[C@H]1CCCNC1 [AZD7762] (partner 0.2 µM)
In short: as §1

[3] = compound: C1=CC(=CC=C1NC(=S)NNC2=C(C=C(C=C2[N+](=O)[O-])C(F)(F)F)[N+](=O)[O-])F [Kobe2602] + O=C(CCCCCCC(=O)Nc1ccccc1)NO [Vorinostat] (partner 1 µM)
In short: as §1

[4] = compound: COc1cc2nccc(Oc3ccc(NC(=O)C4(C(=O)Nc5ccc(F)cc5)CC4)cc3)c2cc1OC [Cabozantinib] + Cc1nc(NC(=O)N2CCC[C@H]2C(N)=O)sc1-c1ccnc(C(C)(C)C(F)(F)F)c1 [Alpelisib] (partner 2 µM)
In short: as §1

Row | Cell Line | relative viability ([1]; first compound 0.02 µM) | relative viability ([1]; first compound 0.06325 µM) | relative viability ([1]; first compound 0.2 µM) | relative viability ([1]; first compound 0.6325 µM) | relative viability ([1]; first compound 2 µM) | relative viability ([2]; first compound 0.2 µM) | relative viability ([2]; first compound 0.6325 µM) | relative viability ([2]; first compound 2 µM) | relative viability ([2]; first compound 6.325 µM) | relative viability ([2]; first compound 20 µM) | relative viability ([3]; first compound 0.2 µM) | relative viability ([3]; first compound 0.6325 µM) | relative viability ([3]; first compound 2 µM) | relative viability ([3]; first compound 6.325 µM) | relative viability ([3]; first compound 20 µM) | relative viability ([4]; first compound 0.02 µM) | relative viability ([4]; first compound 0.06325 µM) | relative viability ([4]; first compound 0.2 µM) | relative viability ([4]; first compound 0.6325 µM) | relative viability ([4]; first compound 2 µM)
1 | HCC-78 | 0.409 | 0.436 | 0.339 | 0.227 | 0.21 | 0.7 | 0.675 | 0.748 | 0.588 | 0.774 | 0.485 | 0.444 | 0.433 | 0.452 | 0.507 | 0.26 | 0.298 | 0.227 | 0.201 | 0.198
2 | HCC-366 | 1.06 | 1.13 | 1.1 | 0.953 | 1 | 0.22 | 0.269 | 0.312 | 0.183 | 0.421 | 0.311 | 0.357 | 0.329 | 0.273 | 0.296 | 0.585 | 0.619 | 0.445 | 0.328 | 0.294
3 | HCC-827 | 0.981 | 1.1 | – | 1.11 | 1.06 | 0.217 | 0.223 | 0.349 | 0.242 | 0.339 | 0.891 | 0.739 | 0.804 | 0.892 | 0.945 | 0.977 | 1.04 | – | 0.925 | 0.9
4 | HOP-62 | 0.779 | 0.828 | 0.56 | 1.07 | 1.06 | 0.635 | 0.529 | 0.667 | 0.447 | 0.537 | 0.707 | 0.717 | 0.559 | 0.763 | 0.688 | 0.981 | 1.02 | 1.43 | 0.807 | 1.08
5 | LC-2-ad | 1.06 | 1.17 | 0.863 | 0.865 | 0.821 | 0.822 | 0.879 | 0.85 | 0.833 | 0.828 | 0.664 | 0.706 | 0.719 | 0.649 | 0.722 | 0.869 | 0.976 | 0.834 | 0.659 | 0.45
6 | LCLC-97TM1 | – | 1.02 | 0.653 | 0.967 | 0.96 | 0.364 | 0.303 | 0.341 | 0.279 | 0.37 | 0.692 | 0.893 | – | 0.964 | 0.722 | – | 0.259 | 0.264 | 0.284 | 0.297
7 | LCLC-103H | 1.09 | 1.12 | 1.14 | 1.03 | 1.03 | 0.76 | 0.842 | 0.791 | 0.848 | 0.81 | 0.802 | 0.813 | 0.776 | 0.839 | 0.81 | 1.08 | 0.859 | 0.951 | 0.861 | 0.752
8 | LOU-NH91 | 0.484 | 0.55 | 0.457 | 0.508 | 0.551 | 0.739 | 0.792 | 0.717 | 0.758 | 0.716 | 0.886 | 1.02 | 0.837 | 0.905 | 0.863 | 0.721 | 0.793 | 0.505 | 0.742 | 0.713
9 | LU99A | 1.13 | 1.16 | 1.17 | 0.986 | 1.06 | 0.356 | 0.381 | 0.31 | 0.279 | 0.356 | 0.491 | 0.493 | 0.539 | 0.51 | 0.53 | 0.469 | 0.495 | 0.429 | 0.502 | 0.543
10 | LXF-289 | 1.09 | 1.03 | 1.01 | 0.956 | 1 | 1.06 | 1.08 | 1.08 | 1.06 | 1.08 | 0.677 | 0.776 | 0.75 | 0.659 | 0.775 | 1.11 | 1.09 | 1.01 | 1 | 0.997
11 | NCI-H23 | – | 1.31 | 0.996 | 0.959 | 0.945 | 0.332 | 0.312 | 0.217 | 0.197 | 0.182 | 0.616 | 0.645 | 0.628 | 0.544 | 0.729 | – | 0.794 | 0.716 | 0.646 | 0.545
12 | NCI-H322M | 1.2 | 1.34 | – | 1.17 | 1.36 | 0.604 | 0.52 | 0.474 | 0.72 | 0.587 | 0.958 | 1.03 | 0.851 | 0.849 | 0.921 | 0.77 | 0.881 | – | 0.846 | 0.773
13 | NCI-H441 | – | 0.494 | 0.776 | 0.76 | 0.385 | 1.1 | 1.11 | 1.13 | 1.13 | 1.06 | 0.756 | 0.711 | 0.808 | 0.646 | 0.697 | – | 0.857 | 0.663 | 0.815 | 0.783
14 | NCI-H460 | 1.38 | 1.15 | 1.12 | 1.13 | 1.13 | 0.64 | 0.756 | 0.681 | 0.652 | 0.56 | – | 0.702 | 0.705 | 0.724 | 0.68 | 0.667 | 0.61 | 0.459 | 0.579 | 0.483
15 | NCI-H596 | 0.966 | 1.07 | 1.02 | 0.802 | 0.996 | 1.13 | 0.978 | 1.03 | 0.87 | 1.02 | 0.591 | 0.726 | 0.63 | 0.659 | 0.68 | 0.462 | 0.191 | 0.552 | 0.416 | 0.385
16 | NCI-H647 | 1.17 | 1.17 | 1.19 | 0.893 | 1.13 | 0.681 | 0.645 | 0.423 | 0.532 | 0.454 | 0.613 | 0.582 | 0.64 | 0.583 | 0.601 | 1.2 | 1.43 | 1.37 | 0.956 | 0.535
17 | NCI-H650 | 0.691 | 0.998 | 0.861 | 0.737 | 0.627 | 0.843 | 1.14 | 0.924 | 0.971 | 1.06 | 0.466 | 0.411 | 0.421 | 0.499 | 0.434 | 1.04 | 1.01 | 1.13 | 1.05 | 0.926
18 | NCI-H727 | 0.704 | 0.901 | 0.718 | 0.819 | 0.947 | 0.57 | 0.519 | 0.532 | – | 0.644 | 1.18 | 1.31 | 1.06 | – | 1.55 | 0.505 | 0.6 | 0.593 | 0.529 | 0.594
19 | NCI-H838 | 0.746 | 0.95 | 0.941 | 0.685 | 1.04 | 0.918 | 1.01 | 0.874 | 0.915 | 0.898 | 0.68 | 0.767 | 0.654 | 0.703 | 0.683 | 1.06 | 1.08 | 0.989 | 0.933 | 0.886
20 | NCI-H1355 | 1.05 | 1.29 | 1.12 | 1.23 | 1.18 | 0.744 | 0.7 | 0.744 | 0.676 | 0.815 | 0.589 | 0.687 | 0.577 | 0.588 | 0.622 | 0.934 | 0.873 | 0.904 | 0.857 | 0.732
21 | NCI-H1437 | 0.533 | 0.635 | 0.549 | 0.565 | 0.64 | 1.17 | 1.14 | 1.11 | 1.05 | 1.02 | 0.855 | 0.739 | 0.78 | 0.791 | 0.625 | 1.03 | 1.03 | 0.992 | 1.02 | 0.934
22 | NCI-H1651 | 0.883 | 1.03 | 0.891 | 0.904 | 0.985 | 0.442 | 0.447 | 0.462 | 0.41 | 0.429 | 0.601 | 0.448 | 0.583 | 0.551 | 0.751 | 0.883 | 0.998 | 0.97 | 0.952 | 0.728
23 | NCI-H1666 | 0.87 | 0.934 | 0.879 | 1.02 | 0.875 | 0.804 | 0.804 | 0.903 | 0.812 | 0.891 | 1.06 | 1.04 | 1.13 | 1.01 | 0.981 | 1.02 | 1.09 | 0.924 | 0.972 | 1.03
24 | NCI-H1734 | 1.04 | 1.06 | 0.987 | 0.891 | 0.951 | 0.554 | 0.656 | 0.586 | 0.549 | 0.503 | 0.863 | 0.912 | 0.844 | 0.841 | 0.8 | 0.718 | 0.681 | 0.717 | 0.654 | 0.638
25 | NCI-H1755 | 0.962 | 1 | 0.903 | 0.895 | 0.928 | 0.416 | 0.446 | 0.642 | 0.407 | 0.544 | 0.743 | 0.743 | 0.671 | 0.744 | 0.802 | 0.993 | 0.919 | 0.882 | 0.877 | 0.764
26 | NCI-H1915 | 1.01 | 1.02 | 0.971 | 1.01 | 0.979 | 0.711 | 0.729 | 0.7 | 0.71 | 0.682 | 0.523 | 0.549 | 0.478 | 0.534 | 0.557 | 1.1 | 1.08 | 1.03 | 1.08 | 1.07
27 | NCI-H1975 | 0.409 | 0.403 | 0.357 | 0.402 | 0.389 | 0.724 | 0.791 | 0.658 | 0.645 | 0.662 | 0.68 | 0.74 | 0.626 | 0.678 | 0.701 | 0.675 | 0.807 | 0.669 | 0.604 | 0.623
